Experimental data as given in patent publication US7524503B2, “Human cytomegalovirus (HCMV) cytotoxic T cell epitopes, polyepitopes compositions comprising same and diagnostic and prophylactic and therapeutic uses therefor” (priority 2001, dated 2009).
Where “and” joins values, the source holds several entries; their conditions need not be identical. Equal entries are not always repeated. Where two headings read alike, the source gives them in different places.

Key:
Type in all cases: cell-based, human
[1] = test system: peptide-sensitized autologous PHA blasts or LCLs; set-up: key to CTL response: Y: Yes; ND: Not detected
[2] = test system: PBMC from healthy HCMV seropositive donors; assay: IFN-γ ELISPOT assay; settings: for ELISPOT Responses (SFC/10^6 PBMC): peptide 10 μg/ml
Description: ELISPOT assay was used to assess whether stimulation of PBMC from a large panel of seropositive donors with HCMV peptides could induce IFN-γ expression in T cells. Briefly, a 96-well nitrocellulose plate (Multiscreen, Millipore) was coated overnight at 4° C. with mouse monoclonal antibody anti-IFN-γ IgG1 (10 μg/ml; Mabtech Nacka, Sweden). The plate was then washed six times in Phosphate Buffered Saline (PBS) and blocked for 1 hour at 37° C. with PBS supplemented with 5% FCS. The blocking solution was removed and PBMC from healthy HCMV seropositive donors were added at a concentration of 2.5×10^5 cells per well in growth medium. These cells were incubated for 18 h at 37° C. in a 5% CO2 atmosphere in the presence of synthetic peptides from HCMV antigens (10 μg/ml). After incubation, the plate was washed three times with PBS supplemented with 0.05% Tween, followed by three washes with PBS alone. Biotinylated anti-IFN-γ (Mabtech, Nacka Sweden) detection antibody was added to each well at a final concentration of 1 μg/ml in PBS. The plates were incubated at room temperature in the dark for 4 h and then washed, as described above. Streptavidin-Alkaline phosphatase (Sigma) was added to each well at a final concentration of 1 μg/ml in PBS and incubated at room temperature in the dark for 2 h. After a final wash with PBS, the substrate, 5-bromo-4-chloro-3-indolyl phosphate and nitro blue tetrazolium, was added to each well and the plates incubated for 30 min at RT. Cells that produced IFN-γ in response to the presence of peptide were detected as purple spots on the nitrocellulose membrane of each well. The spots were counted automatically using a closed-circuit camera (CCD) and ImagePro image analysis software or automated ELISPOT reader (AID, Germany). The T cell precursor frequency for each peptide was based on the total number of PBMC in the well and the number of peptide-specific spots per well, over an average of 3 wells. The number of peptide-specific spots was also calculated by subtracting the negative control values, which consisted of PBMC without peptide (an average of 3 wells), from the test wells.
To determine whether memory CTL responses against the predictive HCMV potential epitopes could be detected in healthy seropositive virus carriers, we used the ELISPOT assay, which allows rapid identification of CTL epitopes without prolonged in vitro culture.
We tested epitopes that were restricted for HLA A1, A3, A24, A26, B7, B8, B27, B35 and B44 in ELISPOT assays, to determine whether memory T cell responses could be detected in healthy HLA-matched virus carriers. PBMC from a cohort of healthy virus carriers (Table 2) were stimulated with individual peptides and the cells that produced IFN-γ were detected. CTL epitopes that were restricted through either HLA A1, A3, A24, A26, B7, B8 or B27, were identified.
Thus, a total of 450 peptides were produced. ELISPOT assays were used to determine whether ex vivo memory T cell responses could be detected in a cohort of 14 healthy virus carriers (Table 2). PBMC were stimulated with individual peptides and the cells that produced IFN-γ were detected.

[3] = test system: CD4+ T cells; assay: CD4+/CD8+ analysis of 20-mer peptides (intracellular IFN-γ staining or depletion ELISPOT)
Description: (§1) To determine whether a particular 20-mer peptide contained either a CD4^+- or CD8^+-restricted epitope, or both, CD4^+/CD8^+ cell depletion ELISPOT assays were performed on PBMC from healthy virus carriers. For any one experiment, three populations of cells were used: a) CD8^+-depleted PBMC, b) CD4^+-depleted PBMC, and c) non-depleted PBMC. These populations of cells were tested concurrently with the same peptides in a conventional ELISPOT assay as described herein above. DYNABEADS M-450 (Dynal, Oslo, Norway) that bound specifically to CD4^+- or CD8^+ cells were used to perform the depletion essentially according to manufacturers instructions. Beads were washed twice in cold PBS supplemented with 2% FCS using magnetic isolation. The requisite number of cells was resuspended in cold PBS supplemented with 2% FCS, added to the beads and then incubated at 4° C., in the dark, for 30 mins (CD8^+ beads) or 60 mins (CD4^+ beads). Populations were depleted of CD4^+ or CD8^+ cells using magnetic separation. After depletion, the non-attached cells were removed and washed once in growth medium, counted and used in conventional ELISPOT assay. Depleted cells were used at 1.7×10^5 cells per well and the non-depleted population was used at the standard 2.5×10^5 cells per well. After the depletion step, each respective cell population was assessed for the purity of CD4^+ and CD8^+ T cells by three-colour flow cytometry. Samples of depleted cell populations were stained with anti-CD3 antibody directly conjugated to fluorescein isothiocyanate (FITC), anti-CD4 antibody conjugated with phycoerythrin (PE) fluorochrome, and anti-CD8 antibody conjugated with Tricolor fluorochrome (described below). The percent of CD3^+/CD4^+ cells present within the CD8^+-depleted population and the percent of CD3^+/CD8^+ cells present within the CD4^+-depleted populations were assessed on FACSCalibur cytometer (Becton Dickinson). The purity of each population was greater than 90% and the results from the ELISPOT assays are expressed as the percentage of CD4+ or CD8^+ cells within the depleted populations that responded toward each peptide by producing IFN-γ.
(§2) PBMCs were incubated at 37° C. in RPMI+10% FCS with and without 10 μg/ml peptides for 6 hours. Golgiplug™ (Pharmingen, San Diego, Calif., USA) was added to the samples according to manufacturer's instructions during the second hour of incubation and cells activated with 25 ng/ml phorbol 12-myristidate 13-acetate (PMA; Sigma-Aldrich Co, St. Louis Mo.) and 1 μg/ml iomomycin (Sigma) acted as a positive control. Following the incubation, 1×10^6 cells/sample were washed and resuspended in staining buffer consisting of PBS with GolgiPlug™, 3% FCS and sodium azide. Cells were then stained with FITC conjugated anti-CD3-FITC (UCHT1, Immunotech, Marseille, France), and either Tricolor (TRI) conjugated anti-CD4 (S3.5, Caltag, Burlingame, Calif.) or anti-CD8 (3B5, Caltag) for 30 minutes, 4° C. in the dark. The cells were fixed for 20 min at 4° C. with Cytofix/Cytoperm™ (BD Biosciences) and resuspended in Perm/Wash™ permeabilization buffer (BD Biosciences) according to manufacturers protocol. Fixed cells were stained with phycoerythrin (PE) conjugated anti-human IFN-γ (B27, Pharmingen) for 30 min at 4° C. in the dark. As a negative control, cells were stained with appropriate isotype matched control antibodies. Cells were washed twice in permeabilization buffer and resuspended in staining buffer before analysis by three-colour flow cytometry on a FACSCalibur cytometer (BD Biosciences). All data analysis was carried out using FlowJo software (Tree Star, Inc. San Carlos, CA).
(§3) When using 20-mer peptides to map epitopes by ELISPOT, it is possible that some responses may be MHC class-II restricted, and not necessarily restricted through HLA class I alleles. It was evident throughout this study that some epitopes identified using ELISPOT could not be confirmed using cytotoxicity analysis. […]

[4] = test system: CD8+ T cells; assay: as above
Description: as §1, §2, §3

“VLEETSVML (human cytomegalovirus IE1 CTL epitope peptide)” was tested, and the “CTL activity of polyclonal CTL line” value ([1]; donor seven, effector:target ratio 10:1) was “strong CTL activity”, the “CTL response” value ([1]; predicted epitopes, Table 3) was “Y” and the “ELISPOT Responses (SFC/10^6 PBMC)” value ([2]; donor fifteen) was 245 SFC/10^6 PBMC. The “ELISPOT Responses (SFC/10^6 PBMC)” value ([2]; donor seven) was 3752 SFC/10^6 PBMC.
For GAAQGDDDVWTSGSDSDEEL, the “Responding cells (% CD4)” value ([3]; donor eight) was 0%, the “Responding cells (% CD8)” value ([4]; donor eight) was 0.01% and the “ELISPOT Responses (SFC/10^6 PBMC)” value ([2]; donor eight) was “JW(248) SFC/10^6 PBMC”.
With FPTKDVAL [reference compound] the “CTL response” value ([1]; predicted epitopes, Table 3) was “Y” and the “ELISPOT Responses (SFC/10^6 PBMC)” value ([2]; donor three) was “MW(445) SFC/10^6 PBMC”.
In the case of TGGGAMAGASTSAGRKRKSA, the “Responding cells (% CD4)” value ([3]; donor eight) was “JW(0.01/0.01) %”, the “Responding cells (% CD8)” value ([4]; donor eight) was “JW(0.01/0.01) %” and the “ELISPOT Responses (SFC/10^6 PBMC)” value ([2]; donor eight) was “JW(441) SFC/10^6 PBMC”.
For CKTMQVNNKGIQIIYTRNHE, the “Responding cells (% CD4)” value ([3]; donor sixteen) was 0%, the “Responding cells (% CD8)” value ([4]; donor sixteen) was 0.14% and the “ELISPOT Responses (SFC/10^6 PBMC)” value ([2]; donor sixteen) was “TC(154) SFC/10^6 PBMC”.
In the case of NLVPMVATV [reference compound], the “CTL response” value ([1]; predicted epitopes, Table 3) was “Y”, the “donors recognizing the epitope in ELISPOT” value ([2]; cohort of eight HLA A2-positive healthy seropositive donors) was “recognized by every donor tested” and the “ELISPOT Responses (SFC/10^6 PBMC)” value ([2]; donor delta) was 170 SFC/10^6 PBMC. For the same sequence, the “ELISPOT Responses (SFC/10^6 PBMC)” value ([2]; donor fifteen) was 356 SFC/10^6 PBMC and 671 SFC/10^6 PBMC, the “ELISPOT Responses (SFC/10^6 PBMC)” value ([2]; donor one) was 1201 SFC/10^6 PBMC and the “ELISPOT Responses (SFC/10^6 PBMC)” value ([2]; donor seven) was 1202 SFC/10^6 PBMC. For the same sequence, the “ELISPOT Responses (SFC/10^6 PBMC)” value ([2]; donor seventeen) was 271 SFC/10^6 PBMC, the “ELISPOT Responses (SFC/10^6 PBMC)” value ([2]; donor six) was 1195 SFC/10^6 PBMC and the “ELISPOT Responses (SFC/10^6 PBMC)” value ([2]; donor thirteen) was 161 SFC/10^6 PBMC.
With VTTERKTPRVTGGGAMAGAS the “Responding cells (% CD4)” value ([3]; donor eight) was 0.17%, the “Responding cells (% CD8)” value ([4]; donor eight) was 0.24% and the “ELISPOT Responses (SFC/10^6 PBMC)” value ([2]; donor eight) was 285 SFC/10^6 PBMC. The “ELISPOT Responses (SFC/10^6 PBMC)” value ([2]; donor epsilon) was 322 SFC/10^6 PBMC and the “ELISPOT Responses (SFC/10^6 PBMC)” value ([2]; donor two) was “JD(319) SFC/10^6 PBMC”.
In the case of QEFFWDANDIYRIFAELEGV, the CTL response ([1]; overlapping 20mer peptides, Table 4) was “Y”, the “ELISPOT Responses (SFC/10^6 PBMC)” value ([2]; donor epsilon) was “SC(704) SFC/10^6 PBMC” and the “ELISPOT Responses (SFC/10^6 PBMC)” value ([2]; donor five) was “CS(107) SFC/10^6 PBMC”. The “ELISPOT Responses (SFC/10^6 PBMC)” value ([2]; donor gamma) was 295 SFC/10^6 PBMC and the “ELISPOT Responses (SFC/10^6 PBMC)” value ([2]; donor twelve) was 30 SFC/10^6 PBMC.
In the case of FRNTNRSLEYKNLPFTIPSM, the “Responding cells (% CD4)” value ([3]; donor sixteen) was 0%, the “Responding cells (% CD8)” value ([4]; donor sixteen) was 0.25% and the “ELISPOT Responses (SFC/10^6 PBMC)” value ([2]; donor sixteen) was “TC(187) SFC/10^6 PBMC”.
For TGPRKKKSKRISELDNEKVR, the “Responding cells (% CD4)” value ([3]; donor seven) was “SB(0.02/0.02) %”, the “Responding cells (% CD8)” value ([4]; donor seven) was “SB(0.02/0.02) %” and the “ELISPOT Responses (SFC/10^6 PBMC)” value ([2]; donor delta) was 162 SFC/10^6 PBMC. For the same sequence, the “ELISPOT Responses (SFC/10^6 PBMC)” value ([2]; donor seven) was 148 SFC/10^6 PBMC.
“SDSESESEEMKCSSGGGASV (human cytomegalovirus IE2 CTL epitope peptide)” was tested, and the “Responding cells (% CD4)” value ([3]; donor sixteen) was 0.01%, the “Responding cells (% CD8)” value ([4]; donor sixteen) was 0.22% and the “ELISPOT Responses (SFC/10^6 PBMC)” value ([2]; donor sixteen) was “TC(147) SFC/10^6 PBMC”.
